The values that follow come from patent US8114875B2, “Substituted N-heterocyclic compounds and their use as dopamine D3 receptor ligands” (Abbott GmbH & Co. KG, priority 2004, dated 2012).

One may read the Ki as a dissociation constant, usually derived from enzyme kinetics or from competition with a known ligand. The low end stands for tighter binding, the high end for weaker binding.

The target in assay [1] is T1, human dopamine D3 receptors (Homo sapiens, UniProt P35462).
T1 construct: expressed in transfected cells; host or cells: HEK-293
T1 sequence (P35462 whole entry): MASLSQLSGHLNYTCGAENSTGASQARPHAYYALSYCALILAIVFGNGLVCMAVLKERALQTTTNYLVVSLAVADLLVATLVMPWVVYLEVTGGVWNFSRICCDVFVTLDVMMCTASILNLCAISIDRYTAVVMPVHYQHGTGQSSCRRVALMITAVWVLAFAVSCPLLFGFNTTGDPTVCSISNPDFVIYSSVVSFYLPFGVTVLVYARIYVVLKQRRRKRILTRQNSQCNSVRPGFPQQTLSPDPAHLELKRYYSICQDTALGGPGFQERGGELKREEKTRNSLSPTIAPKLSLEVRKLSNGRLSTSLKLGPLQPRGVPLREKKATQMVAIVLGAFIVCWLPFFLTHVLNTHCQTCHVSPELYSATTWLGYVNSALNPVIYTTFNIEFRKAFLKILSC
The assay is described as follows: Dopamine D3 receptor binding, displacement of [125I]-iodosulpride. As to conditions: membranes from HEK-293 cells with stably expressed human D3 receptors; 0.1 nM [125I]-iodosulpride; 25° C., 60 minutes. The method, then:
(§1) The substance to be tested was dissolved either in methanol/Chremophor® (BASFAG) or in dimethyl sulfoxide and then diluted with water to the desired concentration.
The mixture (0.250 ml) was composed of membranes from ˜106 HEK-293 cells with stably expressed human dopamine D3 receptors, 0.1 nM [^125I]-iodosulpride and incubation buffer (total binding) or with additional test substance (inhibition plot) or 1 μM spiperone (nonspecific binding). Triplicate mixtures were carried out.
The incubation buffer contained 50 mM Tris, 120 mM NaCl, 5 mM KCl, 2 mM CaCl2, 2 mM MgCl2 and 0.1% bovine serum albumin, 10 μM quinolone, 0.1% ascorbic acid (prepared fresh each day). The buffer was adjusted to pH 7.4 with HCl.
(§2) Measurement and Evaluation:
(§3) After incubation at 25° C. for 60 minutes, the mixtures were filtered under vacuum through Whatman GF/B glass fiber filters using a cell harvester. The filters were transferred by a filter transfer system into scintillation vials. After addition of 4 ml of Ultima Gold® (Packard), the samples were shaken for one hour and then the radioactivity was counted in a beta counter (Packard, Tricarb 2000 or 2200CA). The cp values were converted into dpm by means of a standard quench series with the aid of the instrument's own program.
(§4) Evaluation of the inhibition plots took place by iterative nonlinear regression analysis using the Statistical Analysis System (SAS) similar to the “LIGAND” program described by Munson and Rodbard.
Background: In a radioligand displacement assay an active substance lowers the binding of a labelled ligand.

The target of assay [2] is T2, human dopamine D2L receptors (long isoform) (Homo sapiens, UniProt P14416).
T2 construct: expressed in transfected cells; host or cells: HEK-293
T2 sequence (P14416 whole entry, canonical isoform): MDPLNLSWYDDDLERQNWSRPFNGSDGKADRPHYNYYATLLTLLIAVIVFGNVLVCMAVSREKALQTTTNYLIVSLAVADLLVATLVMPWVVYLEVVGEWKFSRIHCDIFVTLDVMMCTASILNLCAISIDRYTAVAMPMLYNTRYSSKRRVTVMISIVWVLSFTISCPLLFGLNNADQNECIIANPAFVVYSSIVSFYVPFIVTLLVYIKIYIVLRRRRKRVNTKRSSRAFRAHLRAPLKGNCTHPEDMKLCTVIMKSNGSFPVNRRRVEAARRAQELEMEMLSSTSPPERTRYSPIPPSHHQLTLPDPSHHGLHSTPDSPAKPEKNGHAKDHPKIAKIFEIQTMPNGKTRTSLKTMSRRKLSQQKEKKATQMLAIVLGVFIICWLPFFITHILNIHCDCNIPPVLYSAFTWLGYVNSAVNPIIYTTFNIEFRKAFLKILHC
The assay is described as follows: Dopamine D2L receptor binding, displacement of [125I]-iodospiperone. As to conditions: ratio of Ki values from D3 and D2L binding assays, HEK-293 membranes. As to the method:
as §1
The mixture (1 ml) was composed of membranes from ˜10^6 HEK-293 cells with stably expressed human dopamine D2L receptors (long isoform) and 0.01 nM [^1251]-iodospiperone and incubation buffer (total binding) or with additional test substance (inhibition plot) or 1 μM haloperidol (nonspecific binding). Triplicate mixtures were carried out.
The incubation buffer contained 50 mM Tris, 120 mM NaCl, 5 mM KCl, 2 mM CaCl2, 2 mM MgCl2 and 0.1% bovine serum albumin. The buffer was adjusted to pH 7.4 with HCl.
as §2, §3, §4

In assay [1], `O=c1nc(-c2ccccc2)ccn1CCCCN1CCN(Cc2ccc(Cl)cc2Cl)CC1` [Example 3, 1-{4-[4-(2,4-Dichlorobenzyl)piperazin-1-yl]butyl}-4-phenyl-1H-pyrimidin-2-one] yielded an inhibition constant (Ki) of 3.16 nM. In assay [2], the “Selectivity D3 vs. D2L (footnote: Ki(D2L)/Ki(D3))” value (“Selectivity D3 vs. D2L” for short) turned out to be 204.
Molecule `O=c1ccn(CCCCN2CCN(Cc3ccc(Cl)cc3Cl)CC2)c(=O)[nH]1` [Example 2, 1-{4-[4-(2,4-Dichlorobenzyl)piperazin-1-yl]butyl}-1H-pyrimidine-2,4-dione] displayed an inhibitory constant (Ki) in assay [1] of 4.6 nM. In addition, the “Selectivity D3 vs. D2L” value in assay [2] was found to be 94.
Consider `Cc1cn(CCCCN2CCN(Cc3ccc(Cl)c(Cl)c3)CC2)c(=O)[nH]c1=O` [Example 10, 1-{4-[4-(3,4-Dichlorobenzyl)piperazin-1-yl]butyl}-5-methyl-1H-pyrimidine-2,4-dione], for which, in assay [1], the Ki was 18.1 nM. Also, the “Selectivity D3 vs. D2L” value in assay [2] turned out to be 51.
On the same counts, the results for `Cc1cn(CCCCN2CCN(Cc3ccc(F)cc3Cl)CC2)c(=O)[nH]c1=O` [Example 11, 1-{4-[4-(2-Chloro-4-fluorobenzyl)piperazin-1-yl]butyl}-5-methyl-1H-pyrimidine-2,4-dione] are 22.3 nM and 48.
In assay [1], `O=c1[nH]c(=O)n(CCCCN2CCN(Cc3ccc(Cl)cc3Cl)CC2)cc1F` [Example 5, 1-{4-[4-(2,4-Dichlorobenzyl)piperazin-1-yl]butyl}-5-fluoro-1H-pyrimidine-2,4-dione] yielded an inhibitory constant (Ki) of 10.6 nM. The “Selectivity D3 vs. D2L” value in assay [2] came out at 99.
On the same counts, the results for `Cc1ccn(CCCCN2CCN(Cc3ccc(Cl)cc3Cl)CC2)c(=O)n1` [Example 4, 1-{4-[4-(2,4-Dichlorobenzyl)piperazin-1-yl]butyl}-4-methyl-1H-pyrimidin-2-one] are 17 nM and 31.
On to `Cc1cn(CCCCN2CCN(Cc3ccc(Cl)cc3Cl)CC2)c(=O)[nH]c1=O` [Example 1, 1-{4-[4-(2,4-Dichlorobenzyl)piperazin-1-yl]butyl}-5-methyl-1H-pyrimidine-2,4-dione], for which, in assay [1], the Ki is 8.9 nM. Further, in assay [2], the “Selectivity D3 vs. D2L” value was 98.
